Experimental data published in patent US9409907B2, “Inhibitor compounds” (Cancer Research Technology Limited, priority 2012, dated 2016).

target: full length MPS1 (Homo sapiens (Human), UniProt P33981); assay: Measurement of inhibition of MPS1 kinase (Caliper EZ reader mobility-shift enzyme assay); assay type: biochemical; settings: full length MPS1 12.5 nM or 3 nM, H236 peptide 5 μM, ATP 10 μM, 60 min at room temperature
Protocol: Measurement of Inhibition of MPS1 Kinase
The reaction was carried out for 60 min at room temperature and stopped by the addition of buffer (10 μl) containing 20 mM EDTA, 0.05% (v/v) Brij-35, in 0.1M HEPES-buffered saline (Free acid, Sigma, UK). The plate was read on a Caliper EZ reader II (Caliper Life Sciences).
The % inhibition of the compounds is calculated relative to the means of selected control wells.

Sequence of full length MPS1 (P33981 whole entry): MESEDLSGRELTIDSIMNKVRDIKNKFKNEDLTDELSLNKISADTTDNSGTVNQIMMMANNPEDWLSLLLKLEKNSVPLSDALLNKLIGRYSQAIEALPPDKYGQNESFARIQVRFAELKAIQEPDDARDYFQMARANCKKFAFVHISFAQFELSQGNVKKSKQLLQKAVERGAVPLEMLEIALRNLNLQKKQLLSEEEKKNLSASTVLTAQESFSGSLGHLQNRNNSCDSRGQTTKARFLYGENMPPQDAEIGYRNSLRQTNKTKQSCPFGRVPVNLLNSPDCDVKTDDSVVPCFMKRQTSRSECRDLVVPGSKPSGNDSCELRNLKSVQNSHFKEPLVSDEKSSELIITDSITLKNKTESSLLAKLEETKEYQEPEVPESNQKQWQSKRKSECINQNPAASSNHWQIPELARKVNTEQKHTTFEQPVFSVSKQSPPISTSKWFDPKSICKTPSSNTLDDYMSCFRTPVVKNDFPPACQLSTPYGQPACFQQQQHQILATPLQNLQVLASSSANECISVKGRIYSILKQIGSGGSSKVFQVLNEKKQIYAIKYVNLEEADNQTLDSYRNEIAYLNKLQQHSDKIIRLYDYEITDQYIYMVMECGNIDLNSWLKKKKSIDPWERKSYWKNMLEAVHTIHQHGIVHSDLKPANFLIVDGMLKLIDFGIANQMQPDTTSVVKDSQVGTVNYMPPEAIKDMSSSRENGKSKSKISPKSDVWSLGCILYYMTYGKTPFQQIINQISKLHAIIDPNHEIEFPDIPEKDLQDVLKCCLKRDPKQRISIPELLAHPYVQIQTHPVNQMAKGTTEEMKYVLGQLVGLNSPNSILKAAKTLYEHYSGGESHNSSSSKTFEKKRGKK

SMILES | IC50 [nM]
COc1cc(-c2cnn(C)c2)ccc1Nc1ncc2ccnc(NC3CCOCC3)c2n1 [Example 69, N2-(2-methoxy-4-(1-methyl-1H-pyrazol-4-yl)phenyl)-N8-(tetrahydro-2H-pyran-4-yl)pyrido[3,4-d]pyrimidine-2,8-diamine] | 3
COc1cc(C(=O)N2CC(OC)C2)ccc1Nc1cc2c(-c3ccn(C)n3)cccc2cn1 [Example 12, (3-methoxy-4-((5-(1-methyl-1H-pyrazol-3-yl)isoquinolin-3-yl)amino)phenyl)(3-methoxyazetidin-1-yl)methanone] | 26
COc1cc(-c2cnn(C)c2)ccc1Nc1ncc2ccnc(NC(C)(C)C)c2n1 [Example 82, N8-tert-butyl-N2-(2-methoxy-4-(1-methyl-1H-pyrazol-4-yl)phenyl)pyrido[3,4-d]pyrimidine-2,8-diamine] | 25
COc1cc(-c2cnn(C)c2)c(C)cc1Nc1ncc2ccnc(-c3cnn(C)c3)c2n1 [Example 36] | 100
CNc1nccc2cnc(Nc3ccc(-c4cnn(C)c4)cc3OC)nc12 [Example 110, N^2-(2-methoxy-4-(1-methyl-1H-pyrazol-4-yl)phenyl)-N^8-methylpyrido[3,4-d]pyrimidine-2,8-diamine] | 17
COc1cc(-c2cnn(C)c2)ccc1Nc1ncc2ccnc(NCC3(CO)COC3)c2n1 [Example 132, (3-((2-(2-Methoxy-4-(1-methyl-1H-pyrazol-4-yl)phenylamino)pyrido[3,4-d]pyrimidin-8-ylamino)methyl)oxetan-3-yl)methanol] | > 1000
COc1cc(C(=O)N2CC(OC)C2)ccc1Nc1cc2c(-c3cnn(C(C)C)c3)cccc2cn1 [Example 7, (4-((5-(1-isopropyl-1H-pyrazol-4-yl)isoquinolin-3-yl)amino)-3-methoxyphenyl)(3-methoxyazetidin-1-yl)methanone] | 11
COc1cc(N2CCC(N3CCOCC3)CC2)ccc1Nc1ncc2ccnc(NCC(C)(C)C)c2n1 [Example 170, N2-(2-methoxy-4-(4-morpholinopiperidin-1-yl)phenyl)-N8-neopentylpyrido[3,4-d]pyrimidine-2,8-diamine] | 4
COc1cc(-c2cnn(C)c2)ccc1Nc1ncc2ccnc(NCC3(C)CCOC3)c2n1 (racemic) [Example 117, N^2-(2-methoxy-4-(1-methyl-1H-pyrazol-4-yl)phenyl)-N^8-((3-methyltetrahydrofuran-3-yl)methyl)pyrido[3,4-d]pyrimidine-2,8-diamine] | 3
COc1cc(C(=O)N2CCN(C)CC2)ccc1Nc1ncc2ccnc(NCC(C)(C)OC)c2n1 [Example 195] | 8
COc1cc(-c2cnn(C)c2)ccc1Nc1ncc2ccnc(NC3CCCC3)c2n1 [Example 39] | 7
COc1cc(N2CCOCC2)ccc1Nc1ncc2ccnc(NCC(C)(C)C)c2n1 [Example 52, N2-(2-methoxy-4-morpholinophenyl)-N8-neopentyprido[3,4-d]pyrimidine-2,8-diamine] | 8
COc1nc(-c2cnnn2C)ccc1Nc1ncc2ccnc(NCC(C)(C)OC)c2n1 [Example 166, N^8-(2-Methoxy-2-methylpropyl)-N^2-(2-methoxy-6-(1-methyl-1H-1,2,3-triazol-5-yl)pyridin-3-yl)pyrido[3,4-d]pyrimidine-2,8-diamine] | 3
COc1nc(N2CCOCC2)ccc1Nc1ncc2ccnc(NCC(C)(C)C)c2n1 [Example 45, N^2-(2-methoxy-6-morpholinopyridin-3-yl)-N8-neopentylpyrido[3,4-d]pyrimidine-2,8-diamine] | 13
COc1cc(-c2cnn(C)c2)ccc1Nc1cc2c(NCC3CC3)nccc2cn1 [Example 106, N1-(cyclopropylmethyl)-N7-(2-methoxy-4-(1-methyl-1H-pyrazol-4-yl)phenyl)-2,6-naphthyridine-1,7-diamine] | 82
COc1cc(-c2cnn(C)c2)ccc1Nc1ncc2ccnc(NC3COC3)c2n1 [Example 111, N^2-(2-methoxy-4-(1-methyl-1H-pyrazol-4-yl)phenyl)-N^8-(oxetan-3-yl)pyrido[3,4-d]pyrimidine-2,8-diamine] | > 1000
COc1cc(N2CCC(C(=O)N3CCOCC3)CC2)ccc1Nc1ncc2ccnc(NCC(C)(C)C)c2n1 [Example 172, (1-(3-methoxy-4-((8-(neopentylamino)pyrido[3,4-d]pyrimidin-2-yl)amino)phenyl)piperidin-4-yl)(morpholino)methanone] | 12

SMILES | IC50 [nM]
COc1cc(-c2cnn(C)c2)ccc1Nc1ncc2ccnc(N3CCCC(CO)C3)c2n1 (stereo not drawn) [Example 134, (1-(2-(2-Methoxy-4-(1-methyl-1H-pyrazol-4-yl)phenylamino)pyrido[3,4-d]pyrimidin-8-yl)piperidin-3-yl)methanol] | 4
COc1cc(-c2cnn(C)c2)ccc1Nc1ncc2ccnc(NC[C@]3(C)CCOC3)c2n1 [Example 141, (S)—N^2-(2-methoxy-4-(1-methyl-1H-pyrazol-4-yl)phenyl)-N^3-((3-methyltetrahydrofuran-3-yl)methyl)pyrido[3,4-d]pyrimidine-2,8-diamine] | 3
COc1cc(-c2cnn(C)c2CO)ccc1Nc1ncc2ccnc(NCC(C)(C)OC)c2n1 [Example 184] | 2
COc1cc(-c2cnn(C)c2)ccc1Nc1ncc2ccnc(-c3cnn(C(C)C)c3)c2n1 [Example 92, 8-(1-isopropyl-1H-pyrazol-4-yl)-N-(2-methoxy-4-(1-methyl-1H-pyrazol-4-yl)phenyl)pyrido[3,4-d]pyrimidin-2-amine] | 14
COC(C)(C)CNc1nccc2cnc(Nc3ccc(-c4cnn(C)c4)cc3OC(F)F)nc12 [Example 204] | 2
COc1cc(-c2cnn(C)c2)ccc1Nc1ncc2ccnc(NCC(C)(C)O)c2n1 [Example 71, 1-((2-((2-methoxy-4-(1-methyl-1H-pyrazol-4-yl)phenyl)amino)pyrido[3,4-d]pyrimidin-8-yl)amino)-2-methylpropan-2-ol] | 6
COc1cc(-c2cnc(C)n2C)ccc1Nc1ncc2ccnc(NCC(C)(C)C)c2n1 [Example 50, N2-(4-(1,2-dimethyl-1H-imidazol-5-yl)-2-methoxyphenyl)-N8-neopentylpyrido[3,4-d]pyrimidine-2,8-diamine] | 7
Cc1cc(-c2cnn(C)c2)ccc1Nc1ncc2ccnc(NCC3CC3)c2n1 [Example 99, N8-(cyclopropylmethyl)-N2-(2-methyl-4-(1-methyl-1H-pyrazol-4-yl)phenyl)pyrido[3,4-d]pyrimidine-2,8-diamine] | 8
COc1cc(-c2cncn2C)ccc1Nc1ncc2ccnc(NCC(C)(C)C)c2n1 [Example 47, N2-(2-methoxy-4-(1-methyl-1H-imidazol-5-yl)phenyl)-N8-neopentylpyrido[3,4-d]pyrimidine-2,8-diamine] | 2
COCC(C)(C)CNc1nccc2cnc(Nc3ccc(-c4cnn(C)c4)cc3OC)nc12 [Example 85, N8-(3-methoxy-2,2-dimethylpropyl)-N2-(2-methoxy-4-(1-methyl-1H-pyrazol-4-yl)phenyl)pyrido[3,4-d]pyrimidine-2,8-diamine] | 24
COc1cc(-c2cnn(C)c2)ccc1Nc1ncc2ccnc(N[S+]([O-])C(C)(C)C)c2n1 (racemic) [Example 143, (±)-N-(2-(2-methoxy-4-(1-methyl-1H-pyrazol-4-yl)phenylamino)pyrido[3,4-d]pyrimidin-8-yl)-2-methylpropane-2-sulfinamide] | 5
COc1cc(-c2nncn2C)ccc1Nc1ncc2cc(C)nc(NCC(C)(C)OC)c2n1 [Example 180] | 3
COc1cc(-c2cnn(C)c2)ccc1Nc1ncc2ccnc(N3CCOCC3)c2n1 [Example 61, N-(2-methoxy-4-(1-methyl-1H-pyrazol-4-yl)phenyl)-8-morpholinopyrido[3,4-d]pyrimidin-2-amine] | 3
COc1cc(-c2cnc(C)n2C)ccc1Nc1ncc2ccnc(-c3cnn(C)c3)c2n1 [Example 40, N-(4-(1,2-dimethyl-1H-imidazol-5-yl)-2-methoxyphenyl)-8-(1-methyl-1H-pyrazol-4-yl)pyrido[3,4-d]pyrimidin-2-amine] | 4
Clc1cc(-c2cncnc2)ccc1Nc1ncc2ccnc(N3CCC4(COC4)C3)c2n1 [Example 200] | 6
COc1cc(-c2cnn(C)c2)ccc1Nc1ncc2ccnc(N(C)C3CCCC3)c2n1 [Example 59, N8-cyclopentyl-N2-(2-methoxy-4-(1-methyl-1H-pyrazol-4-yl)phenyl)-N8-methylpyrido[3,4-d]pyrimidine-2,8-diamine] | 45
